Calls of active or inactive are those of the source.
What was measured:
[1] = molecular target: T1, Tyrosine-protein phosphatase non-receptor type 22 (Homo sapiens, UniProt Q9Y2R2); assay: inhibition of lymphoid tyrosine phosphatase LYP – biochemical, pCAP fluorogenic substrate, fluorescence, set 3, SAR follow-up (AID 449727); assay type: functional
T1 sequence (Q9Y2R2 whole entry): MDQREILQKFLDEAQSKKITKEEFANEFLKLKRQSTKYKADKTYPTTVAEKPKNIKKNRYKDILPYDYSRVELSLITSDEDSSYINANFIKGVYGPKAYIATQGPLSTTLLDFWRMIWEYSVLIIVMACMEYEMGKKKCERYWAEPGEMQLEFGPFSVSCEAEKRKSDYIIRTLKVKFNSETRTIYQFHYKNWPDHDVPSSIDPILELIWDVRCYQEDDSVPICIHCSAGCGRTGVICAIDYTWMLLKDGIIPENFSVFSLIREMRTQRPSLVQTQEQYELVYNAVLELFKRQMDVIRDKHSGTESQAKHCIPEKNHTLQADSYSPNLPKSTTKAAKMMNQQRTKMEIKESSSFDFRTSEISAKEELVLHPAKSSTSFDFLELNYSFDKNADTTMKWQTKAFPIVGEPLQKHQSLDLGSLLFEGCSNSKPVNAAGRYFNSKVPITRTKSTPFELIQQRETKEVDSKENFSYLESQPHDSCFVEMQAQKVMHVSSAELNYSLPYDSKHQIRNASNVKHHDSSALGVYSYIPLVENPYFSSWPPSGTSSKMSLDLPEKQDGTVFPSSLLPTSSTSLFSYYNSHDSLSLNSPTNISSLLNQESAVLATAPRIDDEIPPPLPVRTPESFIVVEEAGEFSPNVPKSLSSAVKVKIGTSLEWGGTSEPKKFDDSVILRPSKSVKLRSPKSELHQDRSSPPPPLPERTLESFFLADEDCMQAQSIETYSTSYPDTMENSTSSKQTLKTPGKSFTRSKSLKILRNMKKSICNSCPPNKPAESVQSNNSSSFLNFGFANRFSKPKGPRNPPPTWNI

[2] = molecular target: T1, Tyrosine-protein phosphatase non-receptor type 22; assay: PubChem AID 2135
[3] = molecular target: T1, Tyrosine-protein phosphatase non-receptor type 22; assay: PubChem AID 2140
[4] = molecular target: T2, Kappa-type opioid receptor (Homo sapiens, UniProt P41145); assay: SAR analysis of small molecule agonists of the kappa opioid receptor via a luminescent beta-arrestin assay - Set 3. [Related pubchem assays (depositor defined):AID1777, AID1785, AID1786, AID1966, AID2133, AID2136, AID2284, AID2500]; assay type: functional
T2 sequence (P41145 whole entry): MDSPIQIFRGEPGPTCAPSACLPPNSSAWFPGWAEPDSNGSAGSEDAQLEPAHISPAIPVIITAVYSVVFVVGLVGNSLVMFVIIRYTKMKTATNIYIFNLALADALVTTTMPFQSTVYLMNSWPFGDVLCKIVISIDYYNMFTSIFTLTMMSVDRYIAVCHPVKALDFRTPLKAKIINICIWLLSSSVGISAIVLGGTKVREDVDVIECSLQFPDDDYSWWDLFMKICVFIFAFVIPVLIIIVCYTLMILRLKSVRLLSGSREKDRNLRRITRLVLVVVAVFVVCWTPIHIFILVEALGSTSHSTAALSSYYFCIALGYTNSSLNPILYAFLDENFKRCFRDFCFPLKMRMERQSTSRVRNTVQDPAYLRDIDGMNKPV

Mu-type opioid receptor = Mu-type opioid receptor (Homo sapiens, UniProt P35372); assay: SAR Analysis of Agonists of the MOR Receptor using an Image-Based Assay - Set 3. [Related pubchem assays (depositor defined):AID1777, AID1785, AID1786, AID1966, AID2133, AID2136, AID2284, AID2285, AID2352]; assay type: functional
Sequence of Mu-type opioid receptor (P35372 whole entry): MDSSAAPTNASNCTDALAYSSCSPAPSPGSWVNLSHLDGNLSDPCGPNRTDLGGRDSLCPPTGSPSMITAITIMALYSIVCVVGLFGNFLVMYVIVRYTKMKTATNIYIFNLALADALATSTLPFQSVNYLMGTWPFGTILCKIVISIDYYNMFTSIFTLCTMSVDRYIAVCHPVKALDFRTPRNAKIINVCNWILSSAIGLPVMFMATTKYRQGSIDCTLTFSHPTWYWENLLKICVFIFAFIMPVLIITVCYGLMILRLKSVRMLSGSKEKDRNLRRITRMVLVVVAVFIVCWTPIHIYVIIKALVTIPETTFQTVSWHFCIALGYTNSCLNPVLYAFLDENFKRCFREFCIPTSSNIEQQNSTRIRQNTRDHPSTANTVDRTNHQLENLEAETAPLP

[5] = molecular target: T2, Kappa-type opioid receptor; assay: kappa opioid receptor activation by imaging – image-based, set 3, SAR follow-up (AID 488833); assay type: functional
[6] = molecular target: Delta-type opioid receptor (Homo sapiens, UniProt P41143); assay: SAR Analysis of Agonists of the DOR Receptor using an Image-Based Assay - Set 3. [Related pubchem assays (depositor defined):AID1777, AID1786]; assay type: functional
Sequence of Delta-type opioid receptor (P41143 whole entry): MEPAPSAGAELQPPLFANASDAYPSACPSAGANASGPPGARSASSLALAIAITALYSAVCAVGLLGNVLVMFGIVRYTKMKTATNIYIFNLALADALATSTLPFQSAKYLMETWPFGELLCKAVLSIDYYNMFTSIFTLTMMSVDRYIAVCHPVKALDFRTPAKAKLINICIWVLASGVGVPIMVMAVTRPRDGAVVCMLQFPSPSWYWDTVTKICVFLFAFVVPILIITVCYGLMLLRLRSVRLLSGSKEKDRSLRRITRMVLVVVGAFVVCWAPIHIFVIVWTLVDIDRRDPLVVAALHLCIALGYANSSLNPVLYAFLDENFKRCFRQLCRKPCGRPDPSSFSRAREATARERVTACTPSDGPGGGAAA

[7] = molecular target: T3, Voltage-dependent T-type calcium channel subunit alpha-1H (Homo sapiens, UniProt O95180); assay: human CACNA1H calcium influx blockade – cell-based, synthetic library set 1, calcium flux (AID 493022); assay type: functional
T3 sequence (O95180 whole entry): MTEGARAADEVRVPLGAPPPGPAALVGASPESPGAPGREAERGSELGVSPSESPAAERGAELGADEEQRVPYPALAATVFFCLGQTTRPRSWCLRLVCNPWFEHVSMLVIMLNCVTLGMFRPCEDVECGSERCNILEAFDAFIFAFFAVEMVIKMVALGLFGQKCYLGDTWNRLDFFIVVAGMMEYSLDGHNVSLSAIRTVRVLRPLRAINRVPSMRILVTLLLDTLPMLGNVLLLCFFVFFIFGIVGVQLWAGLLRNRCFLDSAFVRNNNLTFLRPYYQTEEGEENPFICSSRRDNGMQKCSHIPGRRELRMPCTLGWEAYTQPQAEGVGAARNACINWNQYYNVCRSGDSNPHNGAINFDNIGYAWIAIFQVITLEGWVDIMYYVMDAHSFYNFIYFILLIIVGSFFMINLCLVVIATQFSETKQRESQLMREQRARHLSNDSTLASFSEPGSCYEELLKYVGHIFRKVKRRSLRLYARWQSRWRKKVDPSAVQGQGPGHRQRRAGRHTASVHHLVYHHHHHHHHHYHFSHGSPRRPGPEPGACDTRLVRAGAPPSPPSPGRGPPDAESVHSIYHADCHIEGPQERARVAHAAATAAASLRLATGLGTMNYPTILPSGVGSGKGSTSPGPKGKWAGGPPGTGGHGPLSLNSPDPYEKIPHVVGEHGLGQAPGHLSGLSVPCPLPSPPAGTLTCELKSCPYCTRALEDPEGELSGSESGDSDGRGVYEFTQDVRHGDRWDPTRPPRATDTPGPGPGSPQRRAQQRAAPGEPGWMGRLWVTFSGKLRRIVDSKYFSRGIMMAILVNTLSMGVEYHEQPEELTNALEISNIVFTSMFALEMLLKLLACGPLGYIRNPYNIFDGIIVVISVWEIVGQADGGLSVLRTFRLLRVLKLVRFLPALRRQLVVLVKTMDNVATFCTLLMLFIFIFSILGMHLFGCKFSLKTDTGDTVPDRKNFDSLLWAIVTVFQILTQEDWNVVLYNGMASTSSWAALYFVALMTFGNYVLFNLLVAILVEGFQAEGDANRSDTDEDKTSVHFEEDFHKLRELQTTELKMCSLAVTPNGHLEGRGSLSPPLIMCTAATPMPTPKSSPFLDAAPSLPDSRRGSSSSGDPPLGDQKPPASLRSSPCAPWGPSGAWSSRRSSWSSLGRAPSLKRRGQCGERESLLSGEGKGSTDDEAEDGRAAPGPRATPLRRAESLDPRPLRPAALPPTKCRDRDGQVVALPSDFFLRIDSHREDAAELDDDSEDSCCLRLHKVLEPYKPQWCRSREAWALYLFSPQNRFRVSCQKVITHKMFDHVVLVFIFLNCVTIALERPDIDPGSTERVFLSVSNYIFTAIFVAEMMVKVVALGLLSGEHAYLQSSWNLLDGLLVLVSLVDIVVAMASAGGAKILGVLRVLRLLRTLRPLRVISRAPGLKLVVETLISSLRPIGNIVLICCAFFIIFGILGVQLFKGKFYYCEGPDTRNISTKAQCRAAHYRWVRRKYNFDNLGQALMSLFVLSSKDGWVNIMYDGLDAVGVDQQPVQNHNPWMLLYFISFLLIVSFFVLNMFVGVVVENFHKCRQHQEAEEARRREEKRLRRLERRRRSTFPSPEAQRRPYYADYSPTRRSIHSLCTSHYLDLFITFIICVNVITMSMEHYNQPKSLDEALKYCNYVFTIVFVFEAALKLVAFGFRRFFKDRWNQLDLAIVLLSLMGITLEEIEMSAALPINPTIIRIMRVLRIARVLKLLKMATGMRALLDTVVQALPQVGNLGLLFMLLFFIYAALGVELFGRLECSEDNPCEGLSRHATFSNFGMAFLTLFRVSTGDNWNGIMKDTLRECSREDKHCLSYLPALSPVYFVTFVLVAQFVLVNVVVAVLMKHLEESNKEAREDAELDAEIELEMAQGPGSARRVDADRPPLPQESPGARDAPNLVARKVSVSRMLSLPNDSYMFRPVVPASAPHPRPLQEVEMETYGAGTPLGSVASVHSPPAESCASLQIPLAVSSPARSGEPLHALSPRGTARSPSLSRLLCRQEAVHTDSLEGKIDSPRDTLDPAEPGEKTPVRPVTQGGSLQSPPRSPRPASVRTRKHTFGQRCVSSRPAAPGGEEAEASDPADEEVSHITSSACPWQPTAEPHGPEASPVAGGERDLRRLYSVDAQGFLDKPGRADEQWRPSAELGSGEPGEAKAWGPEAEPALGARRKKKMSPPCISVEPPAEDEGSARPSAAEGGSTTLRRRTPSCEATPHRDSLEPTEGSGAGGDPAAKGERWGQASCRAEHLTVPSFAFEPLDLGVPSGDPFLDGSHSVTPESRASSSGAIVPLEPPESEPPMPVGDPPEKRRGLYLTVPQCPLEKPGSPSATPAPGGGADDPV

[8] = molecular target: T3, Voltage-dependent T-type calcium channel subunit alpha-1H; assay: human CACNA1H calcium influx blockade – cell-based, synthetic library set 2, HEK293 HH8, Fluo-4, SAR follow-up (AID 493023); assay type: functional
[9] = NIH/3T3 cell viability loss – mouse embryonic fibroblasts, dry powder, set 2, cytotoxicity control, dose response (AID 493247); assay type: functional, cell-based; conditions: Fibroblast
Trypanosoma cruzi = assay: anti-trypanosomal activity in host cells – cell-based, plate reader, dry powder, set 3, dose response (AID 493197); assay type: functional

## CCOc1ccc2nc(NC(=O)CSC3=Nc4sc(C)c(C)c4C(=O)C3)sc2c1
[1]
  IC50: > 100 µM (inactive)
[2]
  IC50: > 100 µM (inactive)
[3]
  IC50: 43.4 µM (active)

## Fc1ccc(CSc2nnc(-c3ccccn3)n2Cc2cccs2)c(C(F)(F)F)c1
[4]
  EC50: 4.46 µM (active)
Mu-type opioid receptor
  EC50: > 32 µM (inactive)
[5]
  EC50: 2.26 µM (active)
[6]
  EC50: > 32 µM (inactive)

## O=C(COc1ccc(Cl)cc1)Nc1nnc(-c2ccc(F)c(F)c2)o1
[7]
  EC50: 1.5 µM (active)

## CC(C)(C)CCN1CCC[C@H](NC(=O)COc2ccccc2F)C1
[8]
  EC50: 10 µM (active)

## CN(Cc1ccccc1)C(=O)C1CCCN(Cc2ccc(Br)cc2)C1 (stereo unspecified)
[9]
  AC50: 74.3 µM (active)
Trypanosoma cruzi
  AC50: 3.01 µM (active)
